Laboratory results: article PMC7367283, “A PIP2 substitute mediates voltage sensor-pore coupling in KCNQ activation” (Communications Biology, 2020)

Target: IKs channels (Homo sapiens, UniProt P51787)
Assay: Inside-out patch clamp of IKs channels expressed in Xenopus oocytes (rundown and rescue)
Format: cell-based
Settings: 10 µM CP1 on intracellular side; pulses to +80 mV
Text: We tested whether CP1 can mimic PIP2 in mediating VSD-pore coupling. We co-expressed KCNQ1 with the voltage-dependent lipid phosphatase CiVSP[44] in Xenopus oocytes and recorded KCNQ1 currents using two-electrode voltage clamp with consecutive depolarizing voltage pulses. The current increased upon KCNQ1 activation at the beginning of the first voltage pulse (First trace, Fig. 2a) and then declined due to CiVSP activation to deplete PIP2[18]. A subsequent voltage pulse elicited much smaller KCNQ1 currents (Rundown trace, Fig. 2a) as a result of PIP2 depletion that had insufficient time to be replenished by endogenous enzymes between the pulses. […] Similarly, the IKs channel (KCNQ1 + KCNE1) currents decrease upon co-expression with CiVSP with consecutive voltage pulses (Fig. 2c, d), which is similar to our previous observations. […] To more directly test CP1 effects, we applied CP1 to the intracellular side of the inside-out membrane patch that expressed IKs channels. […]
Macroscopic currents expressed in Xenopus oocytes were recorded from inside-out patches formed with borosilicate pipettes of 0.5–1.0-MΩ resistance. […]

Structure (SMILES): O=S(=O)([O-])Oc1c(-c2sc3c(ccc4cccc(Cl)c43)c2OS(=O)(=O)[O-])[nH]c2ccc(Br)cc12.[Na+].[Na+] [CP1, DISODIUM 5-BROMO-2-[9-CHLORO-3-(SULFONATOOXY) NAPHTHO [1,2-B] THIEN-2-YL]-1H-INDOL-3-YL SULFATE]
- IKs current after rundown in inside-out patch: the current increased with consecutive voltage pulses
